PMC12530851, “Design, synthesis, and apoptotic antiproliferative activity of novel dihydropyrimidine-5-carbonitrile/1,2,4-oxadiazole hybrids as dual EGFR/VEGFR-2 inhibitors endowed with antioxidant activity” (RSC Advances, 2025)
Like-named read-outs stand apart in the source and are kept apart here.

Experiments:
EGFR [1] = target: T1, EGFR (Homo sapiens, UniProt P00533); parameters: 645–1186; His6 (N); made in house; host or cells: Sf-9 insect cells (baculovirus; pBlueBacHis2B and pFASTBacHTc vectors); settings: cited from earlier work
T1 sequence (P00533 669-1210): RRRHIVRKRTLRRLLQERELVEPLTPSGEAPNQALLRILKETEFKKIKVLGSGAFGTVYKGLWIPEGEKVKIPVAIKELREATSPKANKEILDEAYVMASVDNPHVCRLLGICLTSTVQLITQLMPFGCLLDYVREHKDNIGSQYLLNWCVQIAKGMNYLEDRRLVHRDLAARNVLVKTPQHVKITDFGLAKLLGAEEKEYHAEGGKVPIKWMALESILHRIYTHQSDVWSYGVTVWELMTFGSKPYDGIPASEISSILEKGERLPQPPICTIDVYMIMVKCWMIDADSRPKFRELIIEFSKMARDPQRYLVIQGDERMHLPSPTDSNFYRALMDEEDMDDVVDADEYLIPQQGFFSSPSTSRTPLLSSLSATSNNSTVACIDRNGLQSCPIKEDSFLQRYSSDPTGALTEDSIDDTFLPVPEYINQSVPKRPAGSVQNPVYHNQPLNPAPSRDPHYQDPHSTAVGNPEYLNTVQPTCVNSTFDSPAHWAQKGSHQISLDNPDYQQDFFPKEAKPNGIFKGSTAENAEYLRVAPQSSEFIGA

VEGFR-2 [2] = target: T2, VEGFR-2 (Homo sapiens, UniProt P35968); parameters: purchased Carna Biosciences, Inc; settings: cited from earlier work
T2 sequence (P35968 20-1356): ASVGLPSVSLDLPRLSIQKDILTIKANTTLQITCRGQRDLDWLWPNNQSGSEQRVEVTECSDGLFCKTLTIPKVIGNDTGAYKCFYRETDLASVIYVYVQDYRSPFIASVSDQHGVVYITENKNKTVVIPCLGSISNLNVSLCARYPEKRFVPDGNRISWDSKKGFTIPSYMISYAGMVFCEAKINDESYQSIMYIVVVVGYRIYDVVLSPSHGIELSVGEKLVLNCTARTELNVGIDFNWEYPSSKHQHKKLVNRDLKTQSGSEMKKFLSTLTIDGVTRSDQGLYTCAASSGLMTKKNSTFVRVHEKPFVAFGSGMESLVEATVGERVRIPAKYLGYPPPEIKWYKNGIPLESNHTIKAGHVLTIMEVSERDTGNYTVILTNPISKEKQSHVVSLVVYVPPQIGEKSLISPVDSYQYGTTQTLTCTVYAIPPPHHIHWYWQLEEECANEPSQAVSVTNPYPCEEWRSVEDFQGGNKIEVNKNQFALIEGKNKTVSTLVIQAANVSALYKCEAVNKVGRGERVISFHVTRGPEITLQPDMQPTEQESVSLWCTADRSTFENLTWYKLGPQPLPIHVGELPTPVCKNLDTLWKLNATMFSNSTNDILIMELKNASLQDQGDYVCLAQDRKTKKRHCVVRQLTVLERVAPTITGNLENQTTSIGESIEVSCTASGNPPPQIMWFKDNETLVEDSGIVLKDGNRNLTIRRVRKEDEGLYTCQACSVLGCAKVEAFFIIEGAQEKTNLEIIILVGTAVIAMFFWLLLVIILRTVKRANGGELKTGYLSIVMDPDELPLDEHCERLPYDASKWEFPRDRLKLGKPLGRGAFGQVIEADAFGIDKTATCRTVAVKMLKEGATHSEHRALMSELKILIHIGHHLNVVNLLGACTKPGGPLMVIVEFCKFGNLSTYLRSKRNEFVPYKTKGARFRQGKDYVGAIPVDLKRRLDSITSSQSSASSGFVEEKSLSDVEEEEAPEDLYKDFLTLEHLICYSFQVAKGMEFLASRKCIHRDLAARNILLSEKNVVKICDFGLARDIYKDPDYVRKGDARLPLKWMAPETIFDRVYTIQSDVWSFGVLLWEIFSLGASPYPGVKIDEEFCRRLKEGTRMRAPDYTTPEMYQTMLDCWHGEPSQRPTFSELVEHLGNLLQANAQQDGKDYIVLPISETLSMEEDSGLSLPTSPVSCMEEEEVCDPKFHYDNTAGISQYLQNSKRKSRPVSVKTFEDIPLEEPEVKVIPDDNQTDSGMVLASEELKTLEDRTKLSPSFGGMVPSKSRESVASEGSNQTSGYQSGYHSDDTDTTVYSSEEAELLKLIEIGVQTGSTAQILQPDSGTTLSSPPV

BRAF^V600E = system: BRAF^V600E; parameters: method as in PMID 39281035; settings: cited from earlier work
mutant EGFR (EGFR^T790M) = system: mutant EGFR (EGFR^T790M); parameters: method as in PMID 39281035; settings: cited from earlier work
VEGFR-2 [3] = target: T2, VEGFR-2; test: VEGFR-2 inhibitory assay
Description: The majority of signals detected by antiphosphotyrosine antibody were from EGFR because the enzyme preparation contained low impurities.
Prepare all the solutions using autoclaved, deionized water and analytical grade reagents. Prepare
and store all the reagents at room temperature (unless indicated otherwise). EDTA solution (0.5
M, pH 8.0): add 95 mL ultra-pure water to 14.612 g EDTA, adjust the pH to 8.0 using NaOH
solution, add 5 mL ultra-pure water; 1×Kinase Assay Buffer: add 25 mL HEPES solution (1 M),
water, adjust pH to 7.5 and constant volume to 500 mL using ultrapure water; 4×Stop solution (40
mM): Mix 0.8 mL of the foregoing EDTA solution, 1 mL 10×Detection Buffer and 8.2 mL ultra-
pure water; 1×Detection Buffer: Mix 1 mL 10×Detection Buffer with 9 mL water; 4×VEGFR
μM) was added to 624 μL 1×Kinase Assay Buffer and mixed; 4×ULight™-labeled JAK1
concentration 5 μM) was added to 576 μL 1×Kinase Assay Buffer and mixed; 4×ATP Solution
2×substrate/ATP Mix: 560 μL foregoing 4×ULight™-labeled JAK1 and 560 μL 4×ATP solution
and mixed (prepared before use). The assays used an ULight-labeled peptide substrate and a
Europium-W1024-labeled antiphosphotyrosine antibody. The VEGFR-2 was purchased from
Carna Biosciences, Inc. (New York, USA). The 384-well plates were obtained from PerkinElmer.
Compounds were dissolved in DMSO and diluted to 11 concentrations at a tripling rate from 2.500
5 μL 2×VEGFR-2 kinase solution (0.5 nM)
was added to 384-well plates homogeneous mixing and pre-reaction at room temperature for 30
min. Next, 2.5 μL 4×Ultra ULightTM-JAK-1(Tyr1023) Peptide (200 nM)/ATP (40 μM) was
added to the corresponding wells of a 384-well plate. Negative control: 2.5 μL/well 4×substrate/ATP mixture and 7.5 μL 1×kinase assay buffer in 384-well plate well. Positive control:
μL/well 2×VEGFR-2 kinase solution was added to the 384-well plate, The final concentration of DMSO in the mixing system was 4%. After incubation at room temperature and dark for 60 min, 5 μL 4×stop solution was added to corresponding wells to react for 5 min and then 5 μL 4×detection mix was added to the corresponding wells of a 384-well plate. The mixture was centrifugally mixed and stayed for 60 min at room temperature for color development. The plate
was read using an Envision plate reader. The inhibition rate (%) = (positive well reading-
compound well reading)/(positive well reading-negative well reading)×100. The corresponding IC50 values were calculated using GraphPad Prism 5.0.

[4] = system: four human cancer cell lines (A-549, MCF-7, Panc-1, HT-29); test: Antiproliferative assay, average over four cancer cell lines; type: cell-based; settings: for GI50: average IC50 across A-549, MCF-7, Panc-1, HT-29
Description: The given findings were obtained from at least two distinct studies, each comprising three repeats per concentration. Appendix A (SI File) provides experimental details.[38,39] […]
(§1) 4.2.2. Assay for antiproliferative effect
To explore the antiproliferative potential of compounds propidium iodide fluorescence assay was performed using different cell lines such as Panc-1 (pancreas cancer cell line), MCF-7 (breast […]
respectively. To calculate the total nuclear DNA, a fluorescent dye (propidium iodide, PI) is used which can attach to the DNA, thus offering a quick and precise technique. PI cannot pass through the cell membrane and its signal intensity can be considered as directly proportional to quantity of cellular DNA. Cells whose cell membranes are damaged or have changed permeability are counted as dead ones. The assay was performed by seeding the cells of different cell lines at a density of 3000-7500 cells/well (in 200μl medium) in culture plates followed by incubation for 24h at 37 °C […]
The medium was removed; the compounds were added to the plates at 10 μM concentrations (in 0.1% DMSO) in triplicates, followed by incubation for 48h. DMSO (0.1%) was used as control. After incubation, medium was removed followed by the addition of PI (25 μl, 50μg/mL in water/medium) to each well of the plates. At - 80 °C, the plates were allowed to freeze for 24 h, followed by thawing at 25 °C. A fluorometer (Polar-Star BMG Tech) was used to record the readings at excitation and emission wavelengths of 530 and 620 nm for each well. The percentage cytotoxicity of compounds was calculated using […]
Where ATC= Absorbance of treated cells and AC= Absorbance of control. […]
positive control in the assay. […]

[5] = system: Panc-1 (pancreatic cancer); test: Antiproliferative assay, Panc-1; type: cell-based; settings: Homo sapiens; Panc-1 pancreatic cancer cells; read-out: Antiproliferative activity IC50 ± SEM, Panc-1
Text: (§2) The dose–response experiments established the IC50 values for the new compounds. The given findings were obtained from at least two distinct studies, each comprising three repeats per concentration. Appendix A (SI File) provides experimental details.[38,39]
(§3) The MTT assay[43] was utilized to assess the antiproliferative effects of compounds 10a–l on four human cancer cell lines: HT-29 (colon cancer), Panc-1 (pancreatic cancer), A-549 (lung cancer), and MCF-7 (breast cancer). […]
as §1
(§4) To explore the antiproliferative potential of compounds propidium iodide fluorescence assay was performed using different cell lines such as Panc-1 (pancreas cancer cell line), MCF-7 (breast cancer cell line), HT-29 (colon cancer cell line) and A-549 (epithelial cancer cell line), respectively. To calculate the total nuclear DNA, a fluorescent dye (propidium iodide, PI) is used which can attach to the DNA, thus offering a quick and precise technique. PI cannot pass through the cell membrane and its signal intensity can be considered as directly proportional to quantity of cellular DNA. Cells whose cell membranes are damaged or have changed permeability are counted as dead ones. The assay was performed by seeding the cells of different cell lines at a density of 3000-7500 cells/well (in 200μl medium) in culture plates followed by incubation for 24h at 37 °C in humidified 5%CO2/95% air atmospheric conditions. The medium was removed; the compounds were added to the plates at 10 μM concentrations (in 0.1% DMSO) in triplicates, followed by incubation for 48h. DMSO (0.1%) was used as control. After incubation, medium was removed followed by the addition of PI (25 μl, 50μg/mL in water/medium) to each well of the plates. At - 80 °C, the plates were allowed to freeze for 24 h, followed by thawing at 25 °C. A fluorometer (Polar-Star BMG Tech) was used to record the readings at excitation and emission wavelengths of 530 and 620 nm for each well. The percentage cytotoxicity of compounds was calculated using […]
(§5) Where ATC= Absorbance of treated cells and AC= Absorbance of control. Erlotinib was used as positive control in the assay. […]

MCF-7 (breast cancer) = test: Antiproliferative assay, MCF-7; type: cell-based, human; settings: Homo sapiens, MCF7; MCF-7 breast cancer cells; read-out: Antiproliferative activity IC50 ± SEM, MCF-7
Text: as §2, §3, §1, §4, §5

[6] = Cell viability assay (MTT) on normal MCF-10A cells; type: cell-based; settings: human, MCF-10A mammary gland epithelial cells (normal cell line), MCF-10A normal cells, four-day incubation
Description: The impact of novel compounds 10a–l on the viability of a normal human cell line, specifically human mammary gland epithelial cells (MCF-10A), was assessed to ascertain the safety of the newly synthesized compounds. The MTT test was employed to assess the cell viability of the novel compounds after a four-day incubation with MCF-10A cells.[29,37] Refer to Appendix A for more experimental details.
The effect of new compounds 10a–l on the viability of a normal human cell line, namely human mammary gland epithelial cells (MCF-10A), was evaluated to determine the safety of the newly synthesized compounds.
4.2. Biological evaluation
4.2.1 Cell Viability assay (MTT assay)
MTT assay was performed to investigate the effect of the synthesized compounds on mammary epithelial cells (MCF-10A). The cells were propagated in medium consisting of Ham's F-12 medium/ Dulbecco's modified Eagle's medium (DMEM) (1:1) supplemented with 10% foetal calf serum, 2 mM glutamine, insulin (10 μg/mL), hydrocortisone (500 ng/mL) and epidermal growth factor (20 ng/mL). Trypsin ethylenediamine tetra acetic acid (EDTA) was used to passage the cells after every 2-3 days. 96-well flat-bottomed cell culture plates were used to seed the cells at a density of 10^4 cells mL-1. The medium was aspirated from all the wells of culture plates after 24 h followed by the addition of synthesized compounds (in 200 μL medium to yield a final concentration of 0.1% (v/v) dimethyl sulfoxide) into individual wells of the plates. Four wells were designated to a single compound. The plates were allowed to incubate at 37°C for 96 h. Afterwards, the medium was aspirated and 3-[4,5-dimethylthiazol-2-yl]-2,5-diphenyltetrazolium bromide (MTT) (0.4 mg/mL) in medium was added to each well and subsequently incubated for 3 h. The medium was aspirated and 150 μL dimethyl sulfoxide (DMSO) was added to each well. The plates were vortexed followed by the measurement of absorbance at 540 nm on a microplate reader. […]

EGFR [7] = target: T1, EGFR; test: EGFR inhibitory assay (EGFR-TK test)
Description: Baculoviral expression vectors including pBlueBacHis2B and pFASTBacHTc were used
5ʹ upstream to the EGFR sequence comprised a sequence that encoded (His)6. Sf-9 cells were infected for 72h for protein expression. The pellets of Sf-9 cells were solubilized in a buffer containing sodium vanadate (100 μM), aprotinin (10 μg/mL), triton (1%), HEPES
buffer(50mM), ammonium molybdate (10 μM), benzamidine HCl (16 μg/mL), NaCl (10 mM),leupeptin (10 μg/mL) and pepstatin (10 μg/mL) at 0°C for 20 min at pH 7.4, followed by centrifugation for 20 min. To eliminate the nonspecifically bound material, a Ni-NTA super flow packed column was used to pass through and wash the crude extract supernatant first with 10mM and then with 100 mM imidazole. Histidine-linked proteins were first eluted with 250 and then with 500 mM imidazole subsequent to dialysis against NaCl (50 mM), HEPES (20 mM), glycerol (10%) and 1 μg/mL each of aprotinin, leupeptin and pepstatin for 120 min. The purification was performed either at 4 °C or on ice. To record autophosphorylation level, EGFR kinase assay was carried out on the basis of DELFIA/Time-Resolved Fluorometry. The compounds were first
dissolved in DMSO absolute, subsequent to dilution to appropriate concentration using HEPES
(25 mM) at pH 7.4. Each compound (10 μL) was incubated with recombinant enzyme (10 μL, 5
ng for EGFR, 1:80 dilution in 100 mM HEPES) for 10 min at 25 °C, subsequent to the addition of
5X buffer (10 μL, containing 2 mM MnCl2, 100 μM Na3VO4, 20 mM HEPES and 1 mM DTT)
and ATP-MgCl2 (20 μL, containing 0.1 mM ATP and 50 mM MgCl2) and incubation for 1h. The
negative and positive controls were included in each plate by the incubation of enzyme either with
or without ATP-MgCl2. The liquid was removed after incubation and the plates were washed
thrice using a wash buffer. The Europium-tagged antiphosphotyrosine antibody (75 μL, 400 ng)
was added to each well followed by incubation of 1h and then washing of the plates using buffer.
The enhancement solution was added to each well and the signal was recorded at excitation and
The autophosphorylation percentage inhibition by compounds was calculated using the following equation:
calculated. The majority of signals detected by antiphosphotyrosine antibody were from EGFR because the enzyme preparation contained low impurities.

A-549 (lung cancer) = test: Antiproliferative assay, A-549; type: cell-based; settings: Homo sapiens, A549; A-549 lung cancer cells; read-out: Antiproliferative activity IC50 ± SEM, A-549
Text: as §2, §3, §1, §4, §5

HT-29 (colon cancer) = test: Antiproliferative assay, HT-29; type: cell-based; settings: Homo sapiens; HT-29 colon cancer cells; read-out: Antiproliferative activity IC50 ± SEM, HT-29
Text: as §2, §3, §1, §4, §5

IC50 (VEGFR-2 [3]) [nM]	GI50 ([4]; Homo sapiens) [nM]	GI50 [4] [nM]	IC50 [5] [nM]	IC50 (MCF-7 (breast cancer)) [nM]	IC50 (EGFR [7]) [nM]	IC50 (A-549 (lung cancer)) [nM]	IC50 (HT-29 (colon cancer)) [nM]	Structure (SMILES)	viability at 96 h, 50 µM [6] [%]	also measured
–	–	–	–	–	–	–	–	COc1cc(-c2noc(Cn3cc(-c4ccccc4)nn3)n2)cc(OC)c1OC [Compound III]	–	IC50 (EGFR [1]): 76 nM; IC50 (VEGFR-2 [2]; read-out: VEGFR-2 IC50): 2.4 nM
–	–	–	–	–	–	–	–	CC(=O)c1ccc(NC(=O)CSC2=NC(=O)C(C#N)C(c3ccccc3)N2)cc1 (stereo not shown) [Compound II]	–	IC50 (VEGFR-2 [2]; read-out: VEGFR-2 kinase IC50): 199 nM
–	–	–	–	–	–	–	–	O=c1c2ccccc2nc(SCc2nc(-c3ccc(Cl)cc3)no2)n1-c1ccccc1 [Compound IV]	–	IC50 (BRAF^V600E): 48 nM; Efficacy against mutant EGFR (EGFR^T790M) (mutant EGFR (EGFR^T790M)): considerable efficacy
–	–	–	–	–	–	–	–	COc1ccc(-c2csc(NC(=O)CSc3nc(-c4ccc(OC)cc4)c(C#N)c(=O)[nH]3)n2)cc1 [Compound I]	–	IC50 (EGFR [1]; in vitro EGFR inhibitory assay): 190 ± 200 nM
39 ± 2	34	31	30 ± 1	28 ± 1	71 ± 5	33 ± 2	34 ± 1	COc1ccc(-c2noc(CSc3nc(-c4ccc(Cl)cc4)c(C#N)c(=O)[nH]3)n2)cc1 [Compound 10i, 2-(((3-(4-Methoxyphenyl)-1,2,4-oxadiazol-5-yl)methyl)thio)-4-(4-chlorophenyl)-6-oxo-1,6-dihydropyrimidine-5-carbonitrile]	91	–
43 ± 3	31	34	35 ± 2	31 ± 2	79 ± 5	35 ± 2	36 ± 2	N#Cc1c(-c2ccc(Cl)cc2)nc(SCc2nc(-c3ccc(Cl)cc3)no2)[nH]c1=O [Compound 10h, 2-(((3-(4-Chlorophenyl)-1,2,4-oxadiazol-5-yl)methyl)thio)-4-(4-chlorophenyl)-6-oxo-1,6-dihydropyrimidine-5-carbonitrile]	92	Reduction in antiproliferative potency relative to 10k (GI50) ([4]; less potent than 10k): 1.6 fold
